In publication PMC9072415, “Activation of cannabinoid receptors in breast cancer cells improves osteoblast viability in cancer-bone interaction model while reducing breast cancer cell survival and migration” (Scientific Reports, 2022):
Entries after “also recorded” stand apart in the source; their conditions may differ.

Assays:
Type in all cases: cell-based
[1] = test system: cellular ROS in MDA-MB-231 cells; test: DCFDA cellular ROS detection assay; details: 30 µM ACEA, 15 µM GW405833 or combination, 6 h
Protocol: Cellular reactive oxygen species (ROS) were monitored using the 2´,7´-dichlorofluorescin diacetate (DCFDA) Cellular ROS Detection Assay Kit (ab113851) (Abcam, Cambridge, UK) according to the manufacturer's instruction. In brief, MDA-MB-231 cells were seeded into a 96-black well plates with clear bottom at a density of 2.5 × 10^4 cells/well and grown overnight. Then, the cells were treated with ACEA, GW405833 or the combination of both for 6 h. At the end of the treatment, fluorescence signal of DCF was measured by using a multimode microplate reader (Spark 10 M) (Tecan Austria GmbH, Männedorf, Austria) with the excitation and emission wavelengths of 485 and 535 nm, respectively.

[2] = test system: p-NF-κB p65 in MDA-MB-231 cells; test: Western blot of p-NF-κB p65 expression; details: individual treatments, 48 h
Protocol: Twenty micrograms of protein samples were resolved by sodium dodecyl sulfate polyacrylamide gel electrophoresis (SDS-PAGE) (Invitrogen) gel before being transferred to nitrocellulose blotting membrane (GE Healthcare, Texas, USA).The membranes were then blocked with 5% (w/v) bovine serum albumin (BSA) (Capricorn Scientific, Hessen, Germany) for 2 h at room temperature, followed by the incubation at 4 °C overnight with primary antibodies. After washing, the membranes were incubated with the appropriate horseradish peroxidase (HRP)-conjugated secondary antibodies. Proteins on the immunoblots were visualized by enhanced chemiluminescence (ECL) (Millipore, MA, USA) and exposed to X-ray film (GE Healthcare). Protein band intensity was quantified using ImageJ software (National Institutes of Health, MD, USA). To relatively quantify the target protein expression, the intensity of target protein band was normalized to β-actin of each lane.

[3] = test system: MDA-MB-231 cells; test: Wound healing cell migration assay; details: for cell migration (wound closure): 15 µM
Protocol: Cell migration was measured by wound healing assay modified from Lertsuwan et al.,[27]. Briefly, MDA-MB-231 cells were seeded into a 24-well plate at a density of 4.0 × 10^5 cells/well and allowed to attach overnight. Thereafter, wound was created with a sterile 200-µL pipette tip, then the cells were treated with ACEA, GW405833 or the combination of both. Series of images of the scratched wound were taken under a phase contrast inverted microscope (model AE31) (Motic, China) from 0 to 36 h. The closure of the wound representing migration ability of the cells was measured by using ImageJ software (National Institutes of Health). Cell migration was calculated as the percentage of wound closure area compared to the initial scratched area.

[4] = test system: UMR-106 cells; test: UMR-106 viability (MTT) with conditioned media from agonist-pretreated MDA-MB-231 cells; details: MDA-MB-231 pretreated 48 h; CM collected after 48 h in serum-free DMEM
Protocol: To collect CM from MDA-MB-231 cells, cells were seeded into a 6-well plate at a density of 5.0 × 10^5 cells/well and grown for 24 h until reaching 80–90% confluence. In the pretreatment experiment, cells were treated with either ACEA, GW405833 or a combination of both for 48 h. After that, cells were washed with phosphate buffered saline (PBS) and incubated in serum-free DMEM. Forty-eight hours later, CM from these cells was harvested, filtered through a syringe filter (pore size of 0.2 µm; Sartorius Stedim Biotech GmbH, Göttingen, Germany) to remove cells and debris, and stored at − 80 °C for later experiments (Fig. 1a).
Cell viability was assessed using the 3-(4,5-dimethylthiazol-2-yl)-2,5-diphenyltetrazolium bromide (MTT) colorimetric assay. The assay was performed according to a previously described method. In brief, cells were seeded into a 96-well plate at a density of 1.0 × 10^4 cells/well and allowed to attach overnight. Thereafter, they were treated with ACEA, GW405833 or the combination of both for the indicated times. […] The optical density at 595 nm was measured using a microplate reader (Multiskan EX) (Thermo Fisher Scientific, MA, USA). The percentage of cell viability was calculated based on the absorbance ratio between cells treated with the compounds and control multiplied by 100 (percent cell viability normalized to control).

[5] = test system: UMR-106 cells; test: MTT cell viability assay, UMR-106 cells; details: for IC50: MTT; for effect of low concentrations on osteoblast growth: UMR-106 osteoblasts
Protocol: (§1) Osteoblast-like UMR-106 cells (RRID CVCL_3617; ATCC CRL-1661) and triple-negative breast cancer cells, MDA-MB-231 (RRID CVCL_0062; ATCC HTB-26) were obtained from American Type Culture Collection (ATCC, VA, USA). Cells were cultured in Dulbecco’s modified Eagle’s medium (DMEM) (Sigma-Aldrich, MO, USA) containing 10% (v/v) fetal bovine serum (FBS) and 1% penicillin–streptomycin (Gibco, Texas, USA) and maintained under 5% CO2 at 37 °C, and sub-cultured according to the manufacturer’s instruction.
(§2) Cell viability was assessed using the 3-(4,5-dimethylthiazol-2-yl)-2,5-diphenyltetrazolium bromide (MTT) colorimetric assay. The assay was performed according to a previously described method. In brief, cells were seeded into a 96-well plate at a density of 1.0 × 10^4 cells/well and allowed to attach overnight. Thereafter, they were treated with ACEA, GW405833 or the combination of both for the indicated times. MTT (Invitrogen, CA, USA) solution was added to the final concentration of 0.5 mg/mL in 100 µL in serum-free DMEM and incubated at 37 °C for 4 h, then stop solution was added and thoroughly mixed. The optical density at 595 nm was measured using a microplate reader (Multiskan EX) (Thermo Fisher Scientific, MA, USA). The percentage of cell viability was calculated based on the absorbance ratio between cells treated with the compounds and control multiplied by 100 (percent cell viability normalized to control).
(§3) All results are expressed as means ± standard errors (SEM). Unless otherwise specified, statistical analysis for multiple comparisons was performed using one-way analysis of variance (ANOVA). The difference between pairs of means was analyzed by Tukey post-test. A p-value < 0.05 was considered statistically significant. Calculation of the inhibitory concentration at 50% (IC50) and all statistical analyses were performed using GraphPad Prism 9 (GraphPad Software Inc., USA).

[6] = test system: MDA-MB-231 cells; test: MTT cell viability assay, MDA-MB-231 cells; details: for IC50: MTT
Protocol: as §1, §2, §3

Compound	cellular ROS levels compared to control group [1]	level of p-NF-κB p65 [2]	percentage of wound closure (cell migration) ([3]; 20 µM, 24 h)	percentage of wound closure (cell migration) ([3]; 30 µM, 24 h)	percentage of wound closure (cell migration) ([3]; 30 µM, 36 h)	effect of pretreatment of MDA-MB-231 cells on CM-mediated suppression of UMR-106 cell viability [4]	IC50 ([5]; 24 h) [µM]	IC50 ([5]; 48 h) [µM]	IC50 ([5]; 72 h) [µM]	effect of low concentrations on osteoblast growth [5]	Fold differences between IC50 values of UMR-106 / MDA-MB-231 ([6]; 24 h) [fold]	IC50 ([6]; 24 h) [µM]	Fold differences between IC50 values of UMR-106 / MDA-MB-231 ([6]; 48 h) [fold]	IC50 ([6]; 48 h) [µM]	Fold differences between IC50 values of UMR-106 / MDA-MB-231 ([6]; 72 h) [fold]	IC50 ([6]; 72 h) [µM]	Fold differences between IC50 values of UMR-106 / MDA-MB-231 ([6]; Average of 24, 48 and 72 h) [fold]	cell migration (wound closure) ([3]; 24 h)	cell migration (wound closure) ([3]; 36 h)
CCCCC/C=C\C/C=C\C/C=C\C/C=C\CCCC(=O)NCCCl [ACEA]	remained unchanged	remained unchanged	significantly decreased	significantly decreased; also recorded: significant reduction	significantly decreased	did not alter CM-mediated osteoblast suppression	104	62	38	growth stimulatory effect	1.54	67.8	1.63	38	1.16	32.8	1.44		
COc1ccc2c(c1)c(CCN1CCOCC1)c(C)n2C(=O)c1cccc(Cl)c1Cl [GW405833]	remained unchanged	remained unchanged				significant recovery	168	119	79.9	growth stimulatory effect	6.83	24.6	7.18	16.6	6.27	12.7	6.76	significant reduction	significant cell migration suppression
